Laboratory results: publication PMC8413904 (Pharmacology Research & Perspectives, 2021)
Where two headings read alike, the source gives them in different places.

Columns and labels:
[1] = tested on: cultured rat brain cortical neurons; assay: Dynamic calcium assay (Fluo‐8); type: cell-based
Experimental: (§1) All animal experimental procedures and housing have been approved by the Institutional Animal Care and Use Committee (IACUC) protocol #18‐015 of Virginia Tech. Embryonic day 18 (E18) rat brain tissue samples were obtained from adult pregnant SD rats. Rat brain primary cortical, striatal, and cerebellar neurons were cultured on poly‐d‐lysine coated 96‐well plates for 14 days in vitro (DIV14) before using for the experiments. Primary rat neuron culture was performed as previously published.[44] Briefly, each well of a 96 well plate was loaded with 50 000 cells and grown in 200 µl neurobasal media supplemented with B27, glutamax, penicillin, streptomycin. One hundred microliters of media was replaced with fresh media once in 4 days. Eight to thirteen fetus were obtained from each pregnant rat. Brain tissue from these fetus were pooled to obtain the neurons. Cortical, striatal, and cerebellar neuron assays were carried out at different time points.
Dynamic calcium assay was carried out, using Fluo‐8 no‐wash kit (abcam, ab112129), as per the manufacturer's instructions with minor modifications to fit with experimental necessities. On DIV14, all 200 μl of media was removed and replaced it with 100 μl of HBSS and 100 μl of Fluo‐8 dye loading solution. The plates were incubated at 37°C for 30 min and at room temperature for 30 min. […] Costar 96‐well clear bottom black side plates were read from the bottom, nine times, with 60 s intervals between each read. Temperature was set at 37°C and reading speed was 100 ms.

GluN1/2A [2] = biological target: T1, GluN1/2A (UniProt P35439+Q12879); set-up: method as in PMID 30553788; conditions: at −60 mV; read-out: Mg^2+ IC50; cited from earlier work
[3] = tested on: cultured rat brain cerebellar neurons; assay: Dynamic calcium assay (Fluo‐8); type: cell-based; conditions: 300 µM NMDA alone
Experimental: as §1
(§2) Dynamic calcium assay was carried out, using Fluo‐8 no‐wash kit (abcam, ab112129), as per the manufacturer's instructions with minor modifications to fit with experimental necessities. On DIV14, all 200 μl of media was removed and replaced it with 100 μl of HBSS and 100 μl of Fluo‐8 dye loading solution. The plates were incubated at 37°C for 30 min and at room temperature for 30 min. A volume of 100 µL of test chemicals (3× of desired final concentration) was added to the plates immediately before running the calcium flux assay and read the fluorescence intensity at 490/525 nm (ex/em) using Synergy microplate reader, BioTek, VT. Costar 96‐well clear bottom black side plates were read from the bottom, nine times, with 60 s intervals between each read. Temperature was set at 37°C and reading speed was 100 ms.

[4] = tested on: cultured rat brain striatal neurons; assay: Dynamic calcium assay (Fluo‐8); type: cell-based; conditions: 300 µM NMDA alone
Experimental: as §1, §2

[5] = tested on: cultured rat brain cerebellar neurons; assay: Na^+ assay (CoroNa green‐AM); type: cell-based; conditions: 300 µM NMDA alone
Experimental: as §1
(§3) For Na^+ assay, DIV14 neurons were washed with HBSS and treated with freshly prepared CoroNa green‐AM dye (ThermoFisher, cat # C36676) and incubated for 45 min in 37°C. Plates were washed twice with HBSS before adding drug solutions dissolved in HBSS, and read at 492/516 nm (ex/em) using a plate reader. RFU values of background control and treatments were plotted to identify the effect of CNS4 on NMDA‐induced Na^+ flux in the neurons.

[6] = tested on: cultured rat brain striatal neurons; assay: Na^+ assay (CoroNa green‐AM); type: cell-based; conditions: 300 µM NMDA alone
Experimental: as §1, §3

[7] = tested on: cultured rat brain cortical neurons; assay: Na^+ assay (CoroNa green‐AM); type: cell-based
Experimental: as §1
as §3, with “Plates were washed twice with HBSS before adding drug solutions dissolved in HBSS, and read at 492/516 nm (ex/em) using a plate reader.” left out

GluN1/2D = GluN1/2D (UniProt O15399+P35439); assay: TEVC electrophysiology dose–response in xenopus oocytes; type: cell-based; set-up: host or cells: Xenopus oocytes (cRNA injection)
Excerpt: (§4) NMDAR constructs: cDNA encoding the NMDAR1a subunit (GluN1a) was obtained from Dr. Nakanishi. cDNA encoding the GluN2B (pci_sepGluN2B) was developed initially in the Malinow lab[36] and purchased from Addgene (cat# 23998). cDNA encoding the GluN2C and GluN2D were purchased from GenScript. Mutated GluN1, 2A and 2B cDNA constructs capable of assembling as GluN1/2A/2B triheteromeric (1/2AB) receptors[37] were obtained from Dr. Paoletti (Laboratoire de Neurobiologie, CNRS). […] Plasmids were linearized with NotI (GluN1a) or Avrll (GluN2B), or BstB1 (GluN2C and GluN2D) and transcribed in vitro with T7 (GluN1a, GluN1/2A, GluN2B, GluN2C, & GluN2D) RNA polymerase using the mMessage mMachine transcription kits (Invitrogen by Thermo Fisher Scientific).
(§5) Stage IV frog oocytes were obtained from Xenopus‐I. NMDAR subunit cRNAs were suspended in nuclease‐free sterile water. GluN1A, GluN2B, GluN2C, GluN2D, and GluN1/2A/2B cRNAs were mixed in a ratio of 1:1–3. 50 nl of the final cRNA mixture was microinjected (40–70 ng total) into the oocyte cytoplasm. Oocytes were incubated in ND‐96 solution at 18^◦C prior to electrophysiological recordings (1–3 days).
Electrophysiological responses were measured using a standard two‐microelectrode voltage‐clamp workstation [Warner Instruments (Hamden, Connecticut) model OC‐725C] designed to provide a fast clamp of large cells. The recording buffer contained 116 mM NaCl, 2 mM KCl, 0.3 mM BaCl2, and 5 mM HEPES, pH 7.4. Response magnitude was determined in xenopus oocytes expressing different NMDAR subunits (GluN1/2A, 1/2B, 1/2C, 1/2D, and 1/2A/2B) by the steady plateau response elicited by bath application of different agonist concentrations. […] Response amplitudes for functional NMDARs were generally between 0.1 and 2 μA. […] Dose–response relationships were fit to an appropriate curve‐fitting equation using GraphPad Prism‐7. Nonlinear regression was used to calculate EC50 and/or percentage maximal response. […] Statistical significance was determined at the overall alpha level .05, using appropriate statistical methods as described in each figure captions.

GluN1/2A [8] = biological target: T1, GluN1/2A; assay: as above; type: cell-based
Excerpt: as §4, §5
Electrophysiological responses were measured using a standard two‐microelectrode voltage‐clamp workstation [Warner Instruments (Hamden, Connecticut) model OC‐725C] designed to provide a fast clamp of large cells. The recording buffer contained 116 mM NaCl, 2 mM KCl, 0.3 mM BaCl2, and 5 mM HEPES, pH 7.4. Response magnitude was determined in xenopus oocytes expressing different NMDAR subunits (GluN1/2A, 1/2B, 1/2C, 1/2D, and 1/2A/2B) by the steady plateau response elicited by bath application of different agonist concentrations. […] Response amplitudes for functional NMDARs were generally between 0.1 and 2 μA. […] Dose–response relationships were fit to an appropriate curve‐fitting equation using GraphPad Prism‐7. Nonlinear regression was used to calculate EC50 and/or percentage maximal response. Curve fittings were done using the following equations as performed in the previous studies[34], [39]: Y = 100/(1 + 10^(LogEC50‐X)) or Y = Bottom + (Top − Bottom)/(1+10^(LogEC50‐X)). Statistical significance was determined at the overall alpha level .05, using appropriate statistical methods as described in each figure captions.

T1 sequence (Q12879 23-1464, other chains not shown): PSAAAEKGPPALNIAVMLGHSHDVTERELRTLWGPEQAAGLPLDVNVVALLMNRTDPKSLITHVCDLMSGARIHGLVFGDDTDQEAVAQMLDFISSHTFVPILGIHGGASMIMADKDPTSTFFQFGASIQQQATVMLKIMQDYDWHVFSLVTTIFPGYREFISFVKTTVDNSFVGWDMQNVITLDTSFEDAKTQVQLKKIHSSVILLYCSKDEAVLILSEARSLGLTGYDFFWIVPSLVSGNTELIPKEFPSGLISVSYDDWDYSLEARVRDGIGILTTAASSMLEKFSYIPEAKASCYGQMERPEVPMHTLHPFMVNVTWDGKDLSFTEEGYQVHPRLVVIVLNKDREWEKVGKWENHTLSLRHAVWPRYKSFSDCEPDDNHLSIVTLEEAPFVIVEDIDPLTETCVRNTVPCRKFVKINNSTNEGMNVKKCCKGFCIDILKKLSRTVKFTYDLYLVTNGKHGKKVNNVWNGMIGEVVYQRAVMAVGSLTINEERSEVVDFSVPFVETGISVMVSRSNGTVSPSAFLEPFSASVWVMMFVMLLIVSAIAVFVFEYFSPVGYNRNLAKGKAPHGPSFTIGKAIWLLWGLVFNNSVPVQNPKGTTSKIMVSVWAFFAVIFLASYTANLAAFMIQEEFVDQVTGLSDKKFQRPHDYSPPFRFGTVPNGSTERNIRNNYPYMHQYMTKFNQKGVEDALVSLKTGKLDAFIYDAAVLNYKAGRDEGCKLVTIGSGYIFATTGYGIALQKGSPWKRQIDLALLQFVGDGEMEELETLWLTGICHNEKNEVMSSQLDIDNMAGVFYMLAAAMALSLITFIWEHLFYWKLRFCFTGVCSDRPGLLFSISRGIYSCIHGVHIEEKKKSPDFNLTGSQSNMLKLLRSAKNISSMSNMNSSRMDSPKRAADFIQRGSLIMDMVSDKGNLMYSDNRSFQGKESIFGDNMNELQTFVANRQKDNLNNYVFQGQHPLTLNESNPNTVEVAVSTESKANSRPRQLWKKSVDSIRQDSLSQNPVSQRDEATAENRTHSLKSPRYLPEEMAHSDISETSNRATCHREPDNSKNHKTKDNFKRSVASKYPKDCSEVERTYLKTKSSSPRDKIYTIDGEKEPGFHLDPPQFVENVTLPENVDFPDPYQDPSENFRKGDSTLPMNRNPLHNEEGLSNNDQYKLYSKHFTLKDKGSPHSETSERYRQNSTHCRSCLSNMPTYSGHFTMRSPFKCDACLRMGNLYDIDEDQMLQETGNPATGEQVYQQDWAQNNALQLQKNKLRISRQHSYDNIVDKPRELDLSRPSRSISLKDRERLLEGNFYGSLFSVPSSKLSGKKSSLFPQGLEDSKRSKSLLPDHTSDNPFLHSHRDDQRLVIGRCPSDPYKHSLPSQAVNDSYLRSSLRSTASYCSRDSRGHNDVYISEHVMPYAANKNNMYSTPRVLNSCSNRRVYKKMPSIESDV
Sequence of GluN1/2D (O15399 28-1336, other chains not shown): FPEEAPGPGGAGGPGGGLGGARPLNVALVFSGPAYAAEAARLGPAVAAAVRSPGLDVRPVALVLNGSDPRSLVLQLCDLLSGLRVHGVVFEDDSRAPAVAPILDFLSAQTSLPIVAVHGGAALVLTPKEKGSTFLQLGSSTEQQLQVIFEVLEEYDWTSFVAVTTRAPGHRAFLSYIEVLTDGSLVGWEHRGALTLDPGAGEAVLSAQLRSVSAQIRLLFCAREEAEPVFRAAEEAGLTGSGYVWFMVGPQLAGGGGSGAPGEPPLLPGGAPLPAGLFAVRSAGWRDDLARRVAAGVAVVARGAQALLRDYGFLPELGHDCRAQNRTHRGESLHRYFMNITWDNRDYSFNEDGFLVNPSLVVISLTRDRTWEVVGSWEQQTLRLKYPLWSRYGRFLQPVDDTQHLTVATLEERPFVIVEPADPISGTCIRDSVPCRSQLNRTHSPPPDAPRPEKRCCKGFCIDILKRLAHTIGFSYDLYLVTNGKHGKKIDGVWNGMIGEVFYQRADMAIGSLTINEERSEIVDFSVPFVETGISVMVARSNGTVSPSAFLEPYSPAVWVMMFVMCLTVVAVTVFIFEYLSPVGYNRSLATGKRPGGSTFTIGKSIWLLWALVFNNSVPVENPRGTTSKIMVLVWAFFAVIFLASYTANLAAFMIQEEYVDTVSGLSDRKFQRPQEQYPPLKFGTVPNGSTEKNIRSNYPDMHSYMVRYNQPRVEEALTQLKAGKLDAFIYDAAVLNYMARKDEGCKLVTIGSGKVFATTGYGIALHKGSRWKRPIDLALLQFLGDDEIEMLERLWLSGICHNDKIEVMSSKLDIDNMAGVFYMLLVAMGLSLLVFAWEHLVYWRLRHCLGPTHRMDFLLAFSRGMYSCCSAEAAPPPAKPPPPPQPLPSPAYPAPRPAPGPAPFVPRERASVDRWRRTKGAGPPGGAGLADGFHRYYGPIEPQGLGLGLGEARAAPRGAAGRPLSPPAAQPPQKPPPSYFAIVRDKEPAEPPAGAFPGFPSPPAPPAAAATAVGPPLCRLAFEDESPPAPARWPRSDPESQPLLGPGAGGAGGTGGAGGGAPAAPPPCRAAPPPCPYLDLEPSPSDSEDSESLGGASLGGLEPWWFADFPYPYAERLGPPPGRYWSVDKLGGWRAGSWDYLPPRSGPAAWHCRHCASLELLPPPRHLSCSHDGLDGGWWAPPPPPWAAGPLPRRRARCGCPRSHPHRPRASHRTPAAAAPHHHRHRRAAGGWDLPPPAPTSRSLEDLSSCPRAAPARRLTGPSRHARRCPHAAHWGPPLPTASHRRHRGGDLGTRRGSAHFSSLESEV

NCCCC(=O)O [GABA, reference compound]
Ca^2+ signal, mean rfu ([1]; 100 µM GABA, baseline 7673, p < .0001): 4196 rfu

C[N+](C)(C)CCCCCC[N+](C)(C)C [Hexamethonium, reference compound]
Ca^2+ signal, mean rfu ([1]; 50 µM hexamethonium + 100 µM acetylcholine, p > .9999 vs acetylcholine (6222)): 6228 rfu

[Cl-].[Cl-].[Mg+2] [MgCl2]
IC50 (GluN1/2A [2]): 40 µM

CN[C@H](CC(=O)O)C(=O)O [NMDA, N‐methyl D‐aspartate, reference compound]
Ca^2+ signal, mean rfu ([1]; 300 µM NMDA alone): 26711 rfu
Ca^2+ signal, rfu [3]: 12810 rfu
Ca^2+ signal, mean rfu [4]: 20964 rfu
Na^+ signal compared to the background control [5]: did not significantly increase
Na^+ signal compared to the background control [6]: did not significantly increase

CC(=O)OCC[N+](C)(C)C [acetylcholine, reference compound]
Ca^2+ signal, mean rfu ([1]; 100 µM acetylcholine, baseline 7673, p < .0001): 6222 rfu

N[C@@H](CCC(=O)O)C(=O)O [glutamate, L‐glutamic acid, reference compound]
Ca^2+ signal, mean rfu ([1]; 100 µM glutamate, Figure 8A, baseline 7673): 21956 rfu
Na^+ signal, mean rfu ([7]; 100 µM glutamate, Figure 8B, baseline vs glutamate 514004 vs. 505677, p = .4055): 505677 rfu
EC50 (GluN1/2D): 0.34 ± 0.01 µM

CC(C(O)c1ccc(O)cc1)N1CCC(Cc2ccccc2)CC1 (stereo not shown) [ifenprodil, reference compound]
IC50 (GluN1/2A [8]): 202 ± 25.1 µM

CC12CC3CC(C)(C1)CC(N)(C3)C2 [memantine, reference compound]
effect on NMDA‐induced Ca^2+ signal ([1]; 50 µM memantine added to NMDA, Figure 6): reversed the NMDA‐induced Ca^2+ signal back to the control level
Na^+ signal, mean rfu ([7]; NMDA plus 50 µM memantine, p < .01 vs NMDA alone (400251)): 412868 rfu

picrotoxin [reference compound]
effect on GABA mediated reduction of baseline Ca^2+ response ([1]; 50 µM picrotoxin + 100 µM GABA): unaltered
